Test results taken from patent publication US6946297B2, “System for stabilizing samples” (priority 1999, dated 2005).

Assays:
Type in all cases: cell-based
Escherichia coli = experiment: Survival of organisms in inoculated urine with preservative components, 24 hours at room temperature; design: key to Survival value esco: 24 h count / control count; 1 = no change, 0.1 = 1-log decrease
Experimental: (§1) Antimicrobial activity for each active ingredient in the Chemistat I formulations was first determined for representative organisms listed in Table I. A culture for each organism of interest on blood agar was incubated at 36° C. overnight. About two to three colonies of the organism were transferred via sterile swab from the blood agar culture into a 5 ml Mueller-Hinton broth culture tube, which was then incubated on a rotator for about two to three hours at 36° C. Using a spectrophotometer set at a wavelength of 630 nm, the turbidity of broth culture was adjusted by the addition of Mueller-Hinton broth to an optical density equivalent to approximately 1×10^8 colony forming units (cfu)/ml to form an inoculum solution. An aliquot of the inoculum solution was plated onto blood agar to determine the actual control organism count. For each component listed in Table II, the component was added to filter-sterilized pooled normal urine at the concentration given in Table II to form a test sample. The test sample was then inoculated with an aliquot of the inoculum solution providing a final organism count of approximately 1×10^6 cfu/ml of test sample. Immediately after thorough mixing, an aliquot of the test sample was removed and serially diluted in PBS, and serial dilutions were plated onto blood agar to determine the Time Zero organism count. The inoculated plates were incubated at 36° C., and organism counts were recorded after 18-24 hours. After incubating the test sample for 24 hours at room temperature, an aliquot of the test sample was again removed, serially diluted in PBS and plated onto blood agar. After incubating for 18-24 hours at 36° C., organism counts were obtained. The organism count obtained after 24 hours incubation at room temperature was divided by the control organism count to provide the survival value of each organism as recorded in Table II. With respect to changes in microbial count, a survival value of 1 represents no change; a survival value of 0.1 indicates a 1-log decrease; a survival value of 10 indicates a 1-log increase; and a survival value of 0.000 represents a decrease of greater than or equal to 3-logs. In comparison, the lower the survival value, the greater the component's capacity for controlling organism growth.

Klebsiella pneumoniae = experiment: as above
Experimental: as §1

Proteus vulgaris = experiment: as above
Experimental: as §1

Pseudomonas aeruginosa = experiment: as above
Experimental: as §1

Enterococcus faecalis = experiment: as above; design: key to Survival value enfa: 24 h count / control count; 1 = no change, 0.1 = 1-log decrease
Experimental: as §1

Candida albicans = experiment: as above; design: key to Survival value caal: 24 h count / control count; 1 = no change, 0.1 = 1-log decrease
Experimental: as §1

Enterobacter aerogenes = experiment: as above; design: key to Survival value enae: 24 h count / control count; 1 = no change, 0.1 = 1-log decrease
Experimental: as §1

[1] = tested on: microorganisms of interest; experiment: Antimicrobial (cidal) activity against the organisms of interest taken together; conditions: component alone
Experimental: as §1, with “With respect to changes in microbial count, a survival value of 1 represents no change; a survival value of 0.1 indicates a 1-log decrease; a survival value of 10 indicates a 1-log increase; and a survival value of 0.000 represents a decrease of greater than or equal to 3-logs. In comparison, the lower the survival value, the greater the component's capacity for controlling organism growth.” left out

For CC=Cc1ccc(O)c(OC)c1 [Isoeugenol, isoeugenol], the “Concentration with cidal activity against Escherichia coli” value (Escherichia coli; component alone) was 1.5 μl/ml, the Survival value esco (Escherichia coli; single component at 0.2 μl/ml) was “tntc” and the Survival value esco (Escherichia coli; single component at 0.5 μl/ml) was “tntc”. For the same molecule, the Survival value esco (Escherichia coli; single component at 1.5 μl/ml) was 0.000, the Survival value esco (Escherichia coli; single component at 2.5 μl/ml) was 0.000 and the Survival value esco (Escherichia coli; single component at 4.6 μl/ml) was 0.000. For the same molecule, the Survival value klpn (Klebsiella pneumoniae; single component at 0.2 μl/ml) was “tntc”, the Survival value prvu (Proteus vulgaris; single component at 0.2 μl/ml) was “tntc” and the Survival value psae (Pseudomonas aeruginosa; single component at 0.2 μl/ml) was “tntc”. The Survival value psae (Pseudomonas aeruginosa; single component at 1.5 μl/ml) was “tntc”, the Survival value psae (Pseudomonas aeruginosa; single component at 2.5 μl/ml) was 0.398 and the “Concentration with cidal activity against Enterococcus faecalis” value (Enterococcus faecalis; component alone) was greater than 4.6 μl/ml. The Survival value enfa (Enterococcus faecalis; single component at 0.2 μl/ml) was “tntc”, the Survival value enfa (Enterococcus faecalis; single component at 0.5 μl/ml) was “tntc” and the Survival value enfa (Enterococcus faecalis; single component at 1.5 μl/ml) was “tntc”. For the same molecule, the Survival value enfa (Enterococcus faecalis; single component at 2.5 μl/ml) was 0.750, the Survival value enfa (Enterococcus faecalis; single component at 4.6 μl/ml) was 0.460 and the “Concentration with cidal activity against Candida albicans” value (Candida albicans; component alone) was 2.5 μl/ml. The Survival value caal (Candida albicans; single component at 0.2 μl/ml) was 0.160, the Survival value caal (Candida albicans; single component at 0.5 μl/ml) was 2.786 and the Survival value caal (Candida albicans; single component at 1.5 μl/ml) was 0.152. For the same molecule, the Survival value caal (Candida albicans; single component at 2.5 μl/ml) was 0.000, the Survival value caal (Candida albicans; single component at 4.6 μl/ml) was 0.000 and the “Concentration with cidal activity against Enterobacter aerogenes” value (Enterobacter aerogenes; component alone) was 2.5 μl/ml. For the same molecule, the Survival value enae (Enterobacter aerogenes; single component at 1.5 μl/ml) was “tntc”, the Survival value enae (Enterobacter aerogenes; single component at 2.5 μl/ml) was 0.000 and the “Concentration required for cidal antimicrobial action for many organisms of interest” value [1] was “greater than 1.5 μg/ml”.

With CCC(=O)[O-].[Na+] [Sodium propionate, sodium propionate] the “Concentration inhibitory against Escherichia coli (ineffective up to = >)” value (Escherichia coli; component alone) was greater than 10 mg/mL, the Survival value esco (Escherichia coli; single component at 5 mg/ml) was “tntc” and the Survival value esco (Escherichia coli; single component at 10 mg/ml) was “tntc”. For the same molecule, the “Concentration inhibitory against Klebsiella pneumoniae (ineffective up to = >)” value (Klebsiella pneumoniae; component alone) was greater than 10 mg/mL, the Survival value klpn (Klebsiella pneumoniae; single component at 5 mg/ml) was “tntc” and the “Concentration inhibitory against Proteus vulgaris (ineffective up to = >)” value (Proteus vulgaris; component alone) was greater than 10 mg/mL. The Survival value prvu (Proteus vulgaris; single component at 5 mg/ml) was “tntc”, the “Concentration inhibitory against Pseudomonas aeruginosa (ineffective up to = >)” value (Pseudomonas aeruginosa; component alone) was 10 mg/mL and the Survival value psae (Pseudomonas aeruginosa; single component at 5 mg/ml) was “tntc”. The Survival value psae (Pseudomonas aeruginosa; single component at 10 mg/ml) was 0.341, the “Concentration inhibitory against Enterococcus faecalis (ineffective up to = >)” value (Enterococcus faecalis; component alone) was 10 mg/mL and the Survival value enfa (Enterococcus faecalis; single component at 5 mg/ml) was “tntc”. The Survival value enfa (Enterococcus faecalis; single component at 10 mg/ml) was 2.702, the “Concentration inhibitory against Candida albicans (ineffective up to = >)” value (Candida albicans; component alone) was greater than 10 mg/mL and the Survival value caal (Candida albicans; single component at 5 mg/ml) was “tntc”. For the same molecule, the “Concentration inhibitory against Enterobacter aerogenes (ineffective up to = >)” value (Enterobacter aerogenes; component alone) was greater than 10 mg/mL.

With OB(O)O [Boric Acid, boric acid, reference compound] the “Antimicrobial action against Escherichia coli, in words” value (Escherichia coli; concentrations as in label) was “ineffective”, the Survival value esco (Escherichia coli; single component at 5 mg/ml) was 0.770 and the “Antimicrobial action against Pseudomonas aeruginosa, in words” value (Pseudomonas aeruginosa; concentrations as in label) was “ineffective”. The Survival value psae (Pseudomonas aeruginosa; single component at 5 mg/ml) was 1.157, the “Antimicrobial action against Enterococcus faecalis, in words” value (Enterococcus faecalis; concentrations as in label) was “ineffective” and the Survival value enfa (Enterococcus faecalis; single component at 5 mg/ml) was 2.647. For the same molecule, the “Antimicrobial action against Enterobacter aerogenes, in words” value (Enterobacter aerogenes; concentrations as in label) was “ineffective” and the Survival value enae (Enterobacter aerogenes; single component at 5 mg/ml) was 1.061.
